According to article PMC3323675 (Biochemistry, 2012):

Columns and labels:
[1] = biological target: T1, geranyl diphosphate C-methyltransferase (GPPMT) (Streptomyces coelicolor, UniProt Q9F1Y5); experiment: radiometric methyl transfer, pentane extraction, scintillation counting; format: biochemical; settings: 10 mM MgCl2, pH 7.0, 30 °C
[2] = biological target: T1, geranyl diphosphate C-methyltransferase (GPPMT); experiment: X-ray crystal structure, […] Å; format: binding; settings: with SAH and Mg2+; monomers A, D, H, J only, partial occupancy
[3] = biological target: T1, geranyl diphosphate C-methyltransferase (GPPMT); experiment: X-ray crystal structure, […] Å; format: binding; settings: with SAH and Mg2+; isoprenoid substrate site

T1 sequence (Q9F1Y5 whole entry): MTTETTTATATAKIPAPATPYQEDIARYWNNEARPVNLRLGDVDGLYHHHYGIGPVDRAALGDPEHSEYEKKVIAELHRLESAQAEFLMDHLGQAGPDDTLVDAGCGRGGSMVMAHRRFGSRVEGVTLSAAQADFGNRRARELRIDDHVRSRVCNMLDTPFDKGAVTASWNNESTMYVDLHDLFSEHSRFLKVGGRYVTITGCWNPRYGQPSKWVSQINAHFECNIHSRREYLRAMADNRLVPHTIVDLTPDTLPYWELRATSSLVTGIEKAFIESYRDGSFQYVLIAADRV

**Q.** `CC(C)=CCC/C(C)=C/COP(=O)(O)OP(=O)(O)O` [GPP, geranyl diphosphate] was tested. Which KM ([1]; 60 µM SAM) did it give?
**A.** Kinetic parameters (Vmax and KM) were obtained for GPP and SAM

**Q.** And the “X-ray crystal structure, 2.05 Å” value [2]?
**A.** sufficient electron density to model GPP is observed only in monomers A, D, H, and J

**Q.** Which “X-ray crystal structure, 1.82 Å” value [3] does the source give for `CC(C)=CCC/C(C)=C/CSP(=O)(O)OP(=O)(O)O` [GSPP, geranyl-S-thiolodiphosphate] here?
**A.** GSPP is bound with full occupancy in all monomers

**Q.** How did the KM ([1]; 60 µM GPP, labelled compound) turn out when `C[S+](CC[C@H](N)C(=O)O)C[C@H]1O[C@@H](n2cnc3c(N)ncnc32)[C@H](O)[C@@H]1O` (stereo partly drawn) [SAM, S-adenosyl-L-methionine] was run?
**A.** Kinetic parameters (Vmax and KM) were obtained for GPP and SAM
